Patent US20210238139A1, “MODULATORS OF TRYPTOPHAN CATABOLISM” (E-Therapeutics PLC, priority 2018, published 2021)

Test system: SK-OV-3 cells
Experiment: Effect of compounds on tryptophan catabolism in SK-OV-3 cell line (inhibition of kynurenine production, LC-MS/MS)
Format: cell-based
Settings: Homo sapiens, SK-OV-3, 24 h, SK-OV-3 cell line, 24 h incubation, kynurenine in supernatant by LC-MS/MS; read-out: IC50 Ranges (ic50 values for inhibition of Kynurenine production)
Experimental: SK-OV-3 cells are seeded in 96-well plates in McCoy's 5A medium supplemented with 10% FBS and incubated overnight at 37° C., 5% CO2, 95% humidity. The […] growth medium is replaced with DMEM F-12 medium supplemented with 6 mg/mL L-tryptophan. Compounds are added to the wells and incubated for 24 h at 37° C., 5% CO2, 95% humidity. Compounds are tested at 8 consecutive 3-fold dilutions starting from 30 μM in duplicate. At the end of incubation, concentration of kynurenine in cell supernatants is […] determined by LC-MS/MS. In parallel, cell viability is assessed by measurement of ATP using CellTiter Glo assay (Promega), according to manufacturer's protocol. Inhibition of Kyn production is calculated using the following formula: […] IC50 ranges for compounds of the invention are presented in Table 2, whereby the IC50 ranges are as follows: • A: […]

IC50 [nM] | Structure (SMILES)
< 100 | CC(c1cccc(C#N)c1)N(C(=O)Nc1ccc(Cl)cc1)C1CCCC1 (racemic) [Compound 173, 3-(4-chlorophenyl)-1-[1-(3-cyanophenyl)ethyl]-1-cyclopentyl-urea]
100 to 500 | CC(c1ccccn1)N(C(=O)Nc1ccc(Cl)cc1)C1CCCC1 (racemic) [Compound 174, 3-(4-chlorophenyl)-1-cyclopentyl-1-[1-(2-pyridyl)ethyl]urea]
100 to 500 | CC(c1cccc(C#N)c1)N(C(=O)Nc1ccc(C#N)cc1)C1CCC1 (racemic) [Compound 184, 3-(4-cyanophenyl)-1-[1-(3-cyanophenyl)ethyl]-1-cyclobutyl-urea]
100 to 500 | CC(c1cccc(C#N)c1)N(C(=O)Nc1ccccc1)C1CCCC1 (racemic) [Compound 186, 1-[1-(3-cyanophenyl)ethyl]-1-cyclopentyl-3-phenyl-urea]
100 to 500 | CC(c1cccc(C#N)c1)N(C(=O)Nc1ccc(F)cc1)C1CCCC1 (racemic) [Compound 187, 1-[1-(3-cyanophenyl)ethyl]-1-cyclopentyl-3-(4-fluorophenyl)urea]
100 to 500 | CC(c1cccc(C#N)c1)N(C(=O)Nc1ccc(C#N)cc1)C1CCCC1 (racemic) [Compound 188, 3-(4-cyanophenyl)-1-[1-(3-cyanophenyl)ethyl]-1-cyclopentyl-urea]
100 to 500 | CC(c1cccc(C#N)c1)N(C(=O)Nc1ccc(F)cc1)C1CCC1 (racemic) [Compound 189, 1-[1-(3-cyanophenyl)ethyl]-1-cyclobutyl-3-(4-fluorophenyl)urea]
100 to 500 | Cc1ccc(C(C)N(C(=O)Nc2ccc(C#N)cc2)C2CCCC2)o1 (racemic) [Compound 190, 3-(4-cyanophenyl)-1-cyclopentyl-1-[1-(5-methyl-2-furyl)ethyl]urea]
500 to 1000 | Cc1ccc(C(C)N(C(=O)Nc2ccc(F)cc2)C2CCCC2)o1 (racemic) [Compound 191, 1-cyclopentyl-3-(4-fluorophenyl)-1-[1-(5-methyl-2-furyl)ethyl]urea]
< 100 | CC(c1cccc(C#N)c1)N(C(=O)Nc1ccc(Cl)cc1)C1CCC1 (racemic) [Compound 192, 3-(4-chlorophenyl)-1-[1-(3-cyanophenyl)ethyl]-1-cyclobutyl-urea]
100 to 500 | CCc1c(C)sc2c1CCN(C(=O)Nc1cc(C)cc(C)c1)C2c1ccccc1 (racemic) [Compound 194, N-(3,5-dimethylphenyl)-3-ethyl-2-methyl-7-phenyl-5,7-dihydro-4H-thieno[2,3-c]pyridine-6-carboxamide]
1000 to 5000 | CC(NC(=O)Nc1ccccc1)c1ccc(F)cc1 (racemic) [Compound 197, 1-[1-(4-fluorophenyl)ethyl]-3-phenyl-urea]
500 to 1000 | CC(NC(=O)Nc1ccc(Cl)cc1)c1ccc(Cl)s1 (racemic) [Compound 199, 1-(4-chlorophenyl)-3-[1-(5-chloro-2-thienyl)ethyl]urea]
1000 to 5000 | O=C(NCCc1ccccc1)N(Cc1cccs1)C1CCCC1 [Compound 1, 1-cyclopentyl-3-(2-phenylethyl)-1-(2-thienylmethyl)urea]
1000 to 5000 | O=C(Nc1ccccc1Cl)N(Cc1cccs1)C1CCCC1 [Compound 2, 3-(2-chlorophenyl)-1-cyclopentyl-1-(2-thienylmethyl)urea]
500 to 1000 | O=C(Nc1ccc(F)c(F)c1)N(Cc1cccs1)C1CCCC1 [Compound 4, 1-cyclopentyl-3-(3,4-difluorophenyl)-1-(2-thienylmethyl)urea]
1000 to 5000 | Cc1ccc(NC(=O)N(Cc2cccs2)C2CCCC2)c(C)c1 [Compound 5, 1-cyclopentyl-3-(2,4-dimethylphenyl)-1-(2-thienylmethyl)urea]
1000 to 5000 | N#CCc1ccc(NC(=O)N(Cc2cccs2)C2CCCC2)cc1 [Compound 6, 3-[4-(cyanomethyl)phenyl]-1-cyclopentyl-1-(2-thienylmethyl)urea]
1000 to 5000 | O=C(Nc1ccc2c(c1)OCO2)N(Cc1cccs1)C1CCCC1 [Compound 7, 3-(1,3-benzodioxol-5-yl)-1-cyclopentyl-1-(2-thienylmethyl)urea]
